Legend:
[1] = target: T1, human plasma hyaluronidase (Homo sapiens, UniProt Q12794); test: Effect of EDTA and added calcium on activity of purified human plasma hyaluronidase; format: biochemical; settings: purified preparations of human plasma hyaluronidase
T1 construct: made in house
T1 sequence (Q12794 22-435): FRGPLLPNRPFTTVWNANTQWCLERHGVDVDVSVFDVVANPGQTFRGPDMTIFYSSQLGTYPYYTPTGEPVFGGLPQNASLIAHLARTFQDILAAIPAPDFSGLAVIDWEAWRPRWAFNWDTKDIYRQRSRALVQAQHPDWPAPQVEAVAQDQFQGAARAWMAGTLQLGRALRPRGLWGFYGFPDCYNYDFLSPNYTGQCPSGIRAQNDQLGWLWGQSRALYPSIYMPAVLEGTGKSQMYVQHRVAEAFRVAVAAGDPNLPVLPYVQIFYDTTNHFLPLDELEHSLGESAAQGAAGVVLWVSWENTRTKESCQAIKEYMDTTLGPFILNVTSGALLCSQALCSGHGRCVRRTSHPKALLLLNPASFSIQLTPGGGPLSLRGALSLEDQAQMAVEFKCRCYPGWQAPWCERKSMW
Protocol: One hundred mg of human umbilical cord HA (ICN Pharmaceuticals; Irvine Calif.) was dissolved in 0.1 M MES, pH 5.0, to a final concentration of 1 mg/ml and allowed to dissolve for at least 24 hr at 4° C. prior to coupling of biotin. Sulfo-NHS (Pierce; Rockford Ill.) was added to the hyaluronate MES solution to a final concentration of 0.184 mg/ml. Biotin hydrazide (Pierce) was dissolved in DMSO as a stock solution of 100 mM and added to the HA solution to a final concentration of 1 mM. A stock solution of 1-ethyl-3-(3-dimethylaminopropyl) carbidodiimide (EDAC) was prepared as a 100 mM stock solution in distilled water and added to the HA biotin solution at a final concentration of 30 mM. This solution was left stirring overnight at 4° C. […]
(§1) The reaction was terminated by the addition of 200 μl/well of 6M Guanidine HCl followed by three washes of 300 μl/well with PBS, 2 M NaCl, 50 mM MgSO4, 0.05% TWEEN 20 detergent (Buffer B). […] The plate was incubated in the dark for 10-15 min, then read using a 492 nm filter in an ELISA plate reader (Titertek Multiskan PLUS; ICN) monitored by computer using the Delta Soft II plate reader software from Biometallics (Princeton N.J.). A standard curve using the bovine testicular hyaluronidase was generated by a four parameter curve fit of the commercial hyaluronidase preparation and unknown samples were interpolated through their absorbance at 492 nm.

[2] = system: human foreskin primary keratinocyte cultures; test: Hyaluronidase activity in primary foreskin keratinocyte cultures after calcium-induced differentiation; format: cell-based; settings: 1.5 mM calcium compared to 0.05 mM calcium, 72 hr in culture
Protocol: Hyaluronidase activity also was characterized in normal keratinocytes. Primary foreskin keratinocyte cultures were generated from circumcision tissue from […]. Briefly, tissue was washed 5× in PBS with penicillin, streptomycin, and fungizone, followed by digestion overnight at 4° C. in dispase. Epithelium was stripped from mesenchymal tissue with forceps and digested in trypsin followed by plating on collagen-coated plates in KGM (keratinocyte growth medium) with 0.05 mM calcium (Clonetics; San Diego Calif.). Cells were used between the first and fourth passage. To test the effects of induction of differentiation on hyaluronidase activity, cells were plated into 6 well plates and, at confluence, the medium was either replaced with fresh KGM with 0.05 mM calcium or changed to KGM with 1.5 mM calcium.
Cell layers and conditioned media were harvested after 72 hr in culture. Cell layers were harvested with 60 mM octylglucoside with 50 U/ml DNase I (Boehringer Mannheim; Indianapolis Ind.) and Complete™ protease inhibitor cocktail (Boehringer Mannheim) in PBS. Cells were extracted for 30 min on ice followed by centrifugation at 10,000× g for 10 min. Conditioned media from each sample was treated with octylglucoside and protease inhibitors. […] Activity was expressed as rTRU/mg cellular protein.

[3] = Microtiter-based hyaluronidase assay on immobilized biotinylated HA, pH dependence of enzyme activity; format: biochemical
Protocol: One hundred mg of human umbilical cord HA (ICN Pharmaceuticals; Irvine Calif.) was dissolved in 0.1 M MES, pH 5.0, to a final concentration of 1 mg/ml and allowed to dissolve for at least 24 hr at 4° C. prior to coupling of biotin. Sulfo-NHS (Pierce; Rockford Ill.) was added to the hyaluronate MES solution to a final concentration of 0.184 mg/ml. Biotin hydrazide (Pierce) was dissolved in DMSO as a stock solution of 100 mM and added to the HA solution to a final concentration of 1 mM. A stock solution of 1-ethyl-3-(3-dimethylaminopropyl) carbidodiimide (EDAC) was prepared as a 100 mM stock solution in distilled water and added to the HA biotin solution at a final concentration of 30 mM. This solution was left stirring overnight at 4° C. Unlinked biotin and EDAC were removed by dialysis against water with 3 changes of 1000× volume of water. The dialyzed, biotinylated HA (bHA) was aliquoted and stored at −20° C. for up to several months.
Sulfo-NHS was diluted to 0.184 mg/ml in water with the bHA at a concentration of 0.2 mg/ml and pipetted into 96 well COVALINK-NH plates (NUNC; Placerville N.J.) at 50 μl per well. EDAC was diluted to 0.123 mg/ml in water and pipetted into the COVALINK-NH plates with the HA solution resulting in a final concentration of 10 μg/well hyaluronate and 6.15 μg/well EDAC. […]
as §1, with “nm. […]” for “nm.”

[Ca+2] [calcium]
stimulatory effect on enzyme activity ([1]; added calcium): nor did added calcium have a stimulatory effect
increase in hyaluronidase activity in conditioned media and cell layer [2]: approximately 25 fold

O=C(O)CN(CCN(CC(=O)O)CC(=O)O)CC(=O)O [EDTA, reference compound]
inhibitory effect on enzyme activity [1]: no inhibitory effect

B1: Recombinant human plasma hyaluronidase: immunoaffinity purified recombinant human plasma hyaluronidase (HYAL1), acid-active enzyme (protein)
chain: T1 sequence (Q12794 22-435)
pH optimum of hyaluronidase activity ([3]; 0.1 rTRU enzyme, 50 mM buffers pH 3-8 without NaCl, 30 min at 37° C.): 3.8 pH
enzyme activity above pH 4.5 ([3]; above pH 4.5): no detectable activity
enzyme activity at neutral pH ([3]; neutral pH): no activity was detected
